This passage reports Ki results from BindingDB's records for doi:10.1016/s0196-9781(99)00098-4 (Uppsala University, 1999).

For assay [1], the target named is T1, Neuropeptide Y receptor type 1 (Cavia porcellus, UniProt Q9WVD0).
T1 sequence (Q9WVD0 whole entry): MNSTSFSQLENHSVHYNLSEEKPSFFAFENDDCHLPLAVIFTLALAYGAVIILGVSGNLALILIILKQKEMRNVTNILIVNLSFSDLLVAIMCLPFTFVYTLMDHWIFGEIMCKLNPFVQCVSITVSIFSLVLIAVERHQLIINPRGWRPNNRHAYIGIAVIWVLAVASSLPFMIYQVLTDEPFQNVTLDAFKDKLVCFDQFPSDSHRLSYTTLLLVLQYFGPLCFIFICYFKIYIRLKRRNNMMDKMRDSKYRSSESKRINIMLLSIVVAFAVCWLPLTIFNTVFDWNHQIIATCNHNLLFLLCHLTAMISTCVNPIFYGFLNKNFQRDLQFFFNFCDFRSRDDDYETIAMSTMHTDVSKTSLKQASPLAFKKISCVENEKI

The target in assay [2] is T2, Neuropeptide Y receptor type 1 (Rattus norvegicus, UniProt P21555).
T2 sequence (P21555 whole entry): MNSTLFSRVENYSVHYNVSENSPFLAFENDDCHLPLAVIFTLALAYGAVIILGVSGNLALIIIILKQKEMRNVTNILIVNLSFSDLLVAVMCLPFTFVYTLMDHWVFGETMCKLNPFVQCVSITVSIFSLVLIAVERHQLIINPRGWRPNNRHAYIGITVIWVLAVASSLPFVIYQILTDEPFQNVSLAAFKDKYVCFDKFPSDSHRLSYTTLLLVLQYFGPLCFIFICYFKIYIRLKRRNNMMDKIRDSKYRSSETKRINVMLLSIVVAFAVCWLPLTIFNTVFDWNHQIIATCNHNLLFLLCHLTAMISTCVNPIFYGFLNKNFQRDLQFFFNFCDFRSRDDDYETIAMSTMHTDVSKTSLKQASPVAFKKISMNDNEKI

For orientation: Ki means the equilibrium dissociation constant of an inhibitor or competing ligand from its target. In assay [1], `N=C(N)NCCCC(NC(=O)C(c1ccccc1)c1ccccc1)C(=O)NCc1ccc(O)cc1` (stereo not given) [NSC_5311023] registered a Ki of 4.9 nM.

For `CN(C)CC1CCC(CN=C(N)c2ccc(CC(NC(=O)C(Cc3ccccc3)NS(=O)(=O)c3ccc4ccccc4c3)C(=O)N3CCCC3)cc2)CC1` (stereo not given) [CAS_5312150], the Ki in assay [2] stood at 1.3 nM; in assay [1], 0.8 nM.

In the case of “H-INPIYRLRY-NH2 [NPY 28-36, [P30, Y32, L34]]”, the Ki in assay [2] was determined as 1.4 nM; in assay [1], 2.4 nM.
